Assay results: patent US20250296963A1, “PEPTIDE HAVING ANTIMICROBIAL ACTIVITY” (priority 2022, published 2025)
In brackets after ≈: the same amount, converted by molar mass. Where no end group is shown, it is not given here.

Tests used:
Assay type in all cases: cell-based
Listeria monocytogenes = test: microbe, parasite or virus in culture
Protocol: (§1) The antimicrobial potential of the peptides described herein was compared with the activity of two other AMPs, TcAMP1 and TcAMP2 as discussed in WO1998027805, and antibiotics or fungicides. Comparative MIC assays were carried out against several bacterial and fungal species (Table 1).
(§2) Peptides according to SEQ ID N° 1, SEQ ID N° 2, SEQ ID N° 4, SEQ ID N° 6, and SEQ ID N° 7 were serially diluted in order to create a concentration sequence ranging from 0.39 μg/ml to […].
(§3) Pantoea, Staphylococcus, and Listeria were cultured in Trypticase Soy Broth (TSY) medium consisting of 1.7% casein peptone, 0.3% soy peptone, 0.25% glucose, 0.5% NaCl, 0.25% K2HPO4 and optionally 1.5% agar. Candida cells were cultured in Yeast Extract Peptone Dextrose (YPD) broth medium consisting of 1% yeast extract, 2% peptone, 2% glucose, and optionally 2% agar. Ceratocystis, Botrytis, Leptosphaeria, Mycosphaerella, Sclerotinia, and Verticillium were cultured in Potato Dextrose Agar (PDA) medium consisting of 2.4% Difco pre-mix broth and optionally 1.5% agar.
(§4) For the MIC assay bacteria and fungi were grown on agar plates with their respective media. Pre-cultures were prepared by inoculating either single bacterial colonies or small pieces of fungi in 5 ml of the respective liquid medium. The optical density (OD) at 600 nm was measured after one to five days and adjusted to an OD600 of 1. This cell suspension was used to prepare 1:500 dilutions, corresponding to approximately 2×10^6 microbial cells per ml.
(§5) To evaluate MICs, 96-well plates were prepared with the test antimicrobial peptides. Each well contained 100 μl microbial cell culture, 90 μl culture medium, and 10 μl peptide or control at the corresponding dilution. The plates were incubated overnight (ON) at the optimal growth temperature for each tested organism (Table 1). Results were visually evaluated and MICs determined based on growth or no-growth.
(§6) MIC assays were conducted in at least two independent replicates and with different peptide starting concentrations.

[1] = system: Staphylococcus aureus MRSA; test: microbe, parasite or virus in culture
Protocol: as §1, §2, §3, §4, §5, §6

C. albicans = test: Peptide stability in bodily fluids (sheep blood, urine), MIC against C. albicans; conditions: Candida albicans, read-out: Minimal inhibitory concentration
Protocol: In vitro experiments were conducted to test the behavior of the peptides as disclosed herein in blood, against C. albicans. C. albicans isolates from human blood were used (DSMZ 6569). The peptide according to the SEQ ID N° 1 was adjusted to a concentration of 1 mg/ml and mixed with sheep blood in equal parts. This mixture was incubated overnight at 30° C. To remove solid parts of the blood, the mixture was centrifuged and the obtained plasma supernatant was used for MICs.
In vitro experiments were conducted to test the behavior of the peptides as disclosed herein in urine, against C. albicans. The peptide according to the SEQ ID N° 1 was adjusted to a concentration of 1 mg/ml and mixed with synthetic urine or human urine in equal parts. These mixtures were incubated overnight at 30° C. To remove solid parts of the urine, the mixture was centrifuged and the obtained supernatant was used for MICs.

Ceratosystis paradoxa = test: organism not typed
Protocol: as §1, §2, §3, §4, §5, §6

Pantoea agglomerans = system: Pantoea agglomerans
Protocol: as §1, §2, §3, §4, §5, §6

Leptosphaeria maculans = test: microbe, parasite or virus in culture
Protocol: as §1, §2, §3, §4, §5, §6

Verticillium dahliae = test: microbe, parasite or virus in culture
Protocol: as §1, §2, §3, §4, §5, §6

Candida albicans = test: microbe, parasite or virus in culture
Protocol: as §1, §2, §3, §4, §5, §6

Botrytis cinerea = test: microbe, parasite or virus in culture
Protocol: as §1, §2, §3, §4, §5, §6

Sclerotinia sclerotiorum = test: microbe, parasite or virus in culture
Protocol: as §1, §2, §3, §4, §5, §6

Mycosphaerella pinodes = test: microbe, parasite or virus in culture
Protocol: as §1, §2, §3, §4, §5, §6

Row | Compound | MIC (Listeria monocytogenes; DSM102976, Listeria monocytogenes DSM 102976, TSY, 37° C., overnight, read-out: Minimal inhibitory concentration) | MIC ([1]; DSM 11729 / MRSA, Staphylococcus aureus MRSA DSM 11729, TSY, 37° C., overnight, read-out: Minimal inhibitory concentration) | MIC (C. albicans) | Minimal inhibitory concentration (Ceratosystis paradoxa) | Minimal inhibitory concentration (Pantoea agglomerans) | Minimal inhibitory concentration (Leptosphaeria maculans) | Minimal inhibitory concentration (Verticillium dahliae) | Minimal inhibitory concentration (Candida albicans) | Minimal inhibitory concentration (Listeria monocytogenes) | Minimal inhibitory concentration (Botrytis cinerea) | Minimal inhibitory concentration (Sclerotinia sclerotiorum) | Minimal inhibitory concentration (Mycosphaerella pinodes) | Minimal inhibitory concentration [1]
1 | [H]/N=C(/N)N[C@H]1[C@H](O)[C@@H](O)[C@H](O[C@@H]2O[C@@H](C)[C@](O)(C=O)[C@H]2O[C@@H]2O[C@@H](CO)[C@H](O)[C@@H](O)[C@@H]2NC)[C@@H](N/C(N)=N\[H])[C@@H]1O [Streptomycin] | 7.8 µg/mL (≈ 13.4 µM) | > 125 µg/mL | – | – | – | – | – | – | – | – | – | – | –
2 | CC[C@H](C)C[C@H](C)CCCCCCCCC(=O)N[C@H]1C[C@@H](O)[C@@H](NCCN)NC(=O)[C@@H]2[C@@H](O)CCN2C(=O)[C@H]([C@H](O)CCN)NC(=O)[C@H]([C@H](O)[C@@H](O)c2ccc(O)cc2)NC(=O)[C@@H]2C[C@@H](O)CN2C(=O)[C@H]([C@@H](C)O)NC1=O [Caspofungin, caspofungin] | – | – | 0.5 µg/mL (≈ 0.457 µM) | – | – | – | – | – | – | – | – | – | –
3 | YERDPRQQYEQCQRRCESEATEEREQEQCEQRCEREYKEQQRQQEEE (cysteines drawn unpaired) [SEQ ID No 6] | – | – | – | 4.8 µg/mL | 7.9 µg/mL | 37.9 µg/mL | 14.5 µg/mL | 13.1 µg/mL | 3.25 µg/mL | 14.5 µg/mL | 27.2 µg/mL | 13.12 µg/mL | 13 µg/mL
4 | LQRQYQQCQGRCQEQQQGQREQQQCQRKCWEQYKEQERGEHENYHNHKKNRSEEEEGQQR (cysteines drawn unpaired) [SEQ ID No 7] | – | – | – | 4.7 µg/mL | 9.45 µg/mL | 9.4 µg/mL | 12.7 µg/mL | 12.75 µg/mL | 13.6 µg/mL | 12.75 µg/mL | 23.5 µg/mL | 10.68 µg/mL | 13.6 µg/mL
